Patent US8952024B2, “Herbicidal pyrimidone derivatives” (E I du Pont de Nemours and Company, priority 2009, dated 2015)

Key:
Format in all cases: in vivo
[1] = test system: giant foxtail (Setaria faberii); assay: Test A pre-/postemergence plant response
In short: (§1)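 Pre: directed soil spray on seeded loam/sand blend. Post: same formulation (non-phytotoxic solvent + surfactant) on 2–10 cm plants, 1–2 leaf stage. Greenhouse ~10 d; visual injury score 0–100 vs untreated.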

[2] = test system: velvetleaf (Abutilon theophrasti); assay: Test A pre-/postemergence plant response
In short: as §1

[3] = test system: barnyardgrass (Echinochloa crus-galli); assay: Test A pre-/postemergence plant response
In short: as §1

[4] = test system: pigweed (Amaranthus retroflexus); assay: Test A pre-/postemergence plant response
In short: as §1

[5] = test system: morningglory (Ipomoea spp.); assay: Test A pre-/postemergence plant response
In short: as §1

corn (Zea mays) = assay: Test A pre-/postemergence plant response
In short: as §1

[6] = test system: wheat (Triticum aestivum); assay: Test A pre-/postemergence plant response
In short: as §1

[7] = test system: large crabgrass (Digitaria sanguinalis); assay: Test A pre-/postemergence plant response
In short: as §1

[8] = test system: ducksalad (Heteranthera limosa); assay: Test B flooded paddy test; conditions: for Plant response rating, Flood, Ducksalad: 250 g ai/ha, flooded paddy test, visual rating on 0 to 100 scale (0 no effect, 100 complete control) after 13 to 15 days; for Plant response rating, Ducksalad: Flood (flooded paddy test), 13 to 15 days
In short: (§2)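 Seedlings reaching 2 leaves are flooded 3 cm deep; test material is delivered to that water, which stays at the same depth. Plants remain in a greenhouse 13–15 days and are then scored by eye versus controls from 0 to 100.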

[9] = test system: barnyardgrass (Echinochloa crus-galli); assay: Test B flooded paddy test; conditions: for Plant response rating, Flood, Barnyardgrass: 250 g ai/ha, flooded paddy test, visual rating on 0 to 100 scale (0 no effect, 100 complete control) after 13 to 15 days; for Plant response rating, Barnyardgrass: Flood (flooded paddy test), 13 to 15 days
In short: as §2

rice (Oryza sativa) = assay: Test B flooded paddy test; conditions: for Plant response rating, Flood, Rice: 250 g ai/ha, flooded paddy test, visual rating on 0 to 100 scale (0 no effect, 100 complete control) after 13 to 15 days; for Plant response rating, Rice: Flood (flooded paddy test), 13 to 15 days
In short: as §2

[10] = test system: umbrella sedge (Cyperus difformis); assay: Test B flooded paddy test; conditions: for Plant response rating, Flood, Sedge, Umbrella: 250 g ai/ha, flooded paddy test, visual rating on 0 to 100 scale (0 no effect, 100 complete control) after 13 to 15 days; for Plant response rating, Sedge, Umbrella: Flood (flooded paddy test), 13 to 15 days
In short: as §2

[11] = Postemergence, 125 g ai/ha, 0 to 100 scale where 0 is no effect and 100 is complete control
[12] = Postemergence, 500 g ai/ha, 0 to 100 scale, 0 = no effect, 100 = complete control, approx. ten days
[13] = Preemergence, 125 g ai/ha, 0 to 100 scale, 0 = no effect, 100 = complete control
[14] = Preemergence, 500 g ai/ha, visual injury, 0 to 100 scale (0 no effect, 100 complete control), approx. ten days
[15] = Preemergence, 500 g ai/ha, 0 to 100 scale, 0 = no effect, 100 = complete control
[16] = 62 g ai/ha, scale of 0 to 100 where 0 is no effect and 100 is complete control
[17] = 125 g ai/ha, scale 0 to 100, 0 is no effect, 100 is complete control
[18] = Flood, 31 g ai/ha, scale 0 to 100 (0 no effect, 100 complete control)

Structure (SMILES): Cc1ccc(Cl)cc1-n1c(-c2cccc(Br)c2)ncc(C(=O)C2=C(O)CCCC2=O)c1=O [Compound 144]
- Plant response rating, Foxtail, Giant [1, 11]: 40
- Plant response rating, Foxtail, Giant [1, 12]: 90
- Plant response rating, Foxtail, Giant [1, 13]: 0
- Plant response rating, Foxtail, Giant [1, 14]: 10
- Plant response rating, Velvetleaf [2, 11]: 100
- Plant response rating, Velvetleaf [2, 12]: 100
- Plant response rating, Velvetleaf [2, 13]: 20
- Plant response rating, Velvetleaf [2, 15]: 70
- Plant response rating, Barnyardgrass [3, 11]: 70
- Plant response rating, Barnyardgrass [3, 12]: 100
- Plant response rating, Barnyardgrass [3, 13]: 0
- Plant response rating, Barnyardgrass [3, 14]: 20
- Plant response rating, Pigweed [4, 11]: 80
- Plant response rating, Pigweed [4, 12]: 90
- Plant response rating, Pigweed [4, 13]: 0
- Plant response rating, Pigweed [4, 14]: 90
- Plant response rating, Morningglory [5, 11]: 30
- Plant response rating, Morningglory [5, 12]: 70
- Plant response rating, Morningglory [5, 13]: 0
- Plant response rating, Morningglory [5, 14]: 10
- Plant response rating, Corn (corn (Zea mays); [11]): 0
- Plant response rating, Corn (corn (Zea mays); [12]): 30
- Plant response rating, Corn (corn (Zea mays); [13]): 0
- Plant response rating, Corn (corn (Zea mays); [14]): 0
- Plant response rating, Wheat [6, 11]: 0
- Plant response rating, Wheat [6, 12]: 0
- Plant response rating, Wheat [6, 13]: 0
- Plant response rating, Wheat [6, 15]: 0
- Plant response rating, Crabgrass, Large [7, 11]: 50
- Plant response rating, Crabgrass, Large [7, 12]: 90
- Plant response rating, Crabgrass, Large [7, 13]: 10
- Plant response rating, Crabgrass, Large [7, 14]: 30
- Plant response rating, Flood, Ducksalad [8]: 100
- Plant response rating, Ducksalad [8, 16]: 60
- Plant response rating, Ducksalad [8, 17]: 75
- Ducksalad plant response rating [8, 18]: 50
- Plant response rating, Flood, Barnyardgrass [9]: 20
- Plant response rating, Barnyardgrass [9, 16]: 0
- Plant response rating, Barnyardgrass [9, 17]: 0
- Barnyardgrass plant response rating [9, 18]: 0
- Plant response rating, Flood, Rice (rice (Oryza sativa)): 25
- Plant response rating, Rice (rice (Oryza sativa); [16]): 20
- Plant response rating, Rice (rice (Oryza sativa); [17]): 20
- Rice plant response rating (rice (Oryza sativa); [18]): 15
- Plant response rating, Flood, Sedge, Umbrella [10]: 100
- Plant response rating, Sedge, Umbrella [10, 16]: 65
- Plant response rating, Sedge, Umbrella [10, 17]: 95
- Sedge, Umbrella plant response rating [10, 18]: 50

Structure (SMILES): CCCCCc1ncc(C(=O)C2=C(O)CCCC2=O)c(=O)n1-c1ccccc1 [Compound 78]
- Plant response rating, Foxtail, Giant [1, 11]: 20
- Plant response rating, Foxtail, Giant [1, 12]: 50
- Plant response rating, Foxtail, Giant [1, 13]: 0
- Plant response rating, Foxtail, Giant [1, 14]: 10
- Plant response rating, Velvetleaf [2, 11]: 100
- Plant response rating, Velvetleaf [2, 12]: 100
- Plant response rating, Velvetleaf [2, 13]: 20
- Plant response rating, Velvetleaf [2, 14]: 50
- Plant response rating, Barnyardgrass [3, 11]: 50
- Plant response rating, Barnyardgrass [3, 12]: 70
- Plant response rating, Barnyardgrass [3, 13]: 0
- Plant response rating, Barnyardgrass [3, 14]: 30
- Plant response rating, Pigweed [4, 11]: 100
- Plant response rating, Pigweed [4, 12]: 100
- Plant response rating, Pigweed [4, 13]: 50
- Plant response rating, Pigweed [4, 14]: 100
- Plant response rating, Morningglory [5, 11]: 70
- Plant response rating, Morningglory [5, 12]: 100
- Plant response rating, Morningglory [5, 13]: 0
- Plant response rating, Morningglory [5, 14]: 0
- Plant response rating, Corn (corn (Zea mays); [11]): 0
- Plant response rating, Corn (corn (Zea mays); [12]): 20
- Plant response rating, Corn (corn (Zea mays); [13]): 0
- Plant response rating, Corn (corn (Zea mays); [14]): 0
- Plant response rating, Wheat [6, 11]: 0
- Plant response rating, Wheat [6, 12]: 0
- Plant response rating, Wheat [6, 13]: 0
- Plant response rating, Wheat [6, 14]: 0
- Plant response rating, Crabgrass, Large [7, 11]: 30
- Plant response rating, Crabgrass, Large [7, 12]: 70
- Plant response rating, Crabgrass, Large [7, 13]: 10
- Plant response rating, Crabgrass, Large [7, 14]: 50
- Plant response rating, Flood, Ducksalad [8]: 20
- Plant response rating, Ducksalad [8, 16]: 0
- Plant response rating, Flood, Barnyardgrass [9]: 0
- Plant response rating, Barnyardgrass [9, 16]: 0
- Plant response rating, Flood, Rice (rice (Oryza sativa)): 20
- Plant response rating, Rice (rice (Oryza sativa); [16]): 0
- Plant response rating, Flood, Sedge, Umbrella [10]: 40
- Plant response rating, Sedge, Umbrella [10, 16]: 30

Structure (SMILES): CCn1c(-c2cccc(C)c2)ncc(C(=O)C2=C(O)CCCC2=O)c1=O [Compound 115]
- Plant response rating, Foxtail, Giant [1, 11]: 50
- Plant response rating, Foxtail, Giant [1, 12]: 80
- Plant response rating, Foxtail, Giant [1, 13]: 20
- Plant response rating, Foxtail, Giant [1, 14]: 70
- Plant response rating, Velvetleaf [2, 11]: 100
- Plant response rating, Velvetleaf [2, 12]: 100
- Plant response rating, Velvetleaf [2, 13]: 60
- Plant response rating, Velvetleaf [2, 14]: 90
- Plant response rating, Barnyardgrass [3, 11]: 70
- Plant response rating, Barnyardgrass [3, 12]: 90
- Plant response rating, Barnyardgrass [3, 13]: 0
- Plant response rating, Barnyardgrass [3, 14]: 80
- Plant response rating, Pigweed [4, 11]: 100
- Plant response rating, Pigweed [4, 12]: 100
- Plant response rating, Pigweed [4, 13]: 70
- Plant response rating, Pigweed [4, 14]: 100
- Plant response rating, Morningglory [5, 11]: 90
- Plant response rating, Morningglory [5, 12]: 100
- Plant response rating, Morningglory [5, 13]: 60
- Plant response rating, Morningglory [5, 14]: 80
- Plant response rating, Corn (corn (Zea mays); [11]): 0
- Plant response rating, Corn (corn (Zea mays); [12]): 20
- Plant response rating, Corn (corn (Zea mays); [13]): 0
- Plant response rating, Corn (corn (Zea mays); [14]): 0
- Plant response rating, Wheat [6, 11]: 0
- Plant response rating, Wheat [6, 12]: 0
- Plant response rating, Wheat [6, 13]: 0
- Plant response rating, Wheat [6, 14]: 0
- Plant response rating, Crabgrass, Large [7, 11]: 60
- Plant response rating, Crabgrass, Large [7, 12]: 90
- Plant response rating, Crabgrass, Large [7, 13]: 20
- Plant response rating, Crabgrass, Large [7, 14]: 80
- Plant response rating, Flood, Ducksalad [8]: 85
- Plant response rating, Ducksalad [8, 16]: 85
- Plant response rating, Flood, Barnyardgrass [9]: 65
- Plant response rating, Barnyardgrass [9, 16]: 50
- Plant response rating, Flood, Rice (rice (Oryza sativa)): 20
- Plant response rating, Rice (rice (Oryza sativa); [16]): 20
- Plant response rating, Flood, Sedge, Umbrella [10]: 90
- Plant response rating, Sedge, Umbrella [10, 16]: 70
